Experimental data published in patent US12458651B2, “Compounds and their uses for alleviating menopause-associated symptoms” (ESTETRA SRL, priority 2018, dated 2025).
Where two headings read alike, the source gives them in different places.

How the values were obtained:
post-menopausal women [1] = experiment: GSM symptom: vaginal and/or vulvar irritation/itching; type: in vivo; details: E4 15 mg
Method: (§1) Change from baseline to week 12 in the following GSM symptoms (VVA subject self-assessment) were recorded: • a) Vaginal dryness (sensation of dryness or burning in the vagina; none=0 mild=1, moderate=2 or severe=3):
• b) Vaginal and/or vulvar irritation/itching (sensation of abnormal irritation or sensitive condition in the vagina; none=0, mild=1, moderate=2 or severe=3): […]

[2] = tested on: C-terminal telopeptide (CTX-1); experiment: C-terminal telopeptide (CTX-1), marker of bone resorption; type: in vivo
post-menopausal women [3] = experiment: GSM symptom: dysuria; type: in vivo
Method: as §1
• c) Dysuria (sensation of pain or difficulty in urinating; none=0, mild=1, moderate=2 or severe=3): […]

postmenopausal women = details: cited from earlier work
post-menopausal women [4] = experiment: GSM symptom: vaginal pain associated with sexual activity; type: in vivo
Method: as §1
• d) Vaginal pain associated with sexual activity (sensation of pain with sexual intercourse none=0, mild=1, moderate=2 or severe=3): […]

[5] = Triglycerides level at 15 mg and 20 mg daily doses; type: in vivo; details: 20 mg daily dose in place of 15 mg daily dose
Method: In order to better assess the potential for increasing the daily dose beyond the minimum effective dose of 15 mg daily, a number of parameters were followed in a study where estetrol was administered at the increased dose of 20 mg per day.
1. Triglycerides Level (mmol/L)

post-menopausal women [6] = experiment: Adverse events (AEs, TEAEs) in the dose-finding study; type: in vivo
From the text: This is confirmed by the following statistical analysis. Using a Poisson regression model with a random effect for the patient and treatment group as a covariate to model the count of TEAEs in the different treatment groups, it can be shown that there is no statistical difference between the treatment groups (p value of 0.099). Second, a chi-square test was used to assess if the prevalence of patients reporting TEAEs in each treatment group was similar. No statistical difference was found between the treatment groups (p value of 0.575).

Structure (SMILES): C[C@]12CC[C@@H]3c4ccc(O)cc4CC[C@H]3[C@@H]1[C@@H](O)[C@@H](O)[C@@H]2O [Estetrol, 1,3,5 (10)-estratrien-3,15alpha,16alpha,17beta-tetrol]
- Vaginal and/or vulvar irritation/itching score (none=0 to severe=3), mean ± SD (post-menopausal women [1]; Baseline): 0.5 ± 0.85
- Vaginal and/or vulvar irritation/itching score (none=0 to severe=3), mean ± SD (post-menopausal women [1]; Week 12): 0.4 ± 0.70
- Bone resorption (CTX-1), decrease compared with 15 mg daily dose ([2]; 20 mg daily dose, after 28 days of treatment): more pronounced
- C-Terminal Telopeptide (CTX-1), Baseline, Mean ([2]; E4 15 mg daily): 416.0 ng/L
- C-Terminal Telopeptide (CTX-1), Baseline, Median ([2]; E4 15 mg daily): 339.0 ng/L
- C-Terminal Telopeptide (CTX-1), End Of Treatment Actual Change from Baseline, Mean ([2]; E4 15 mg daily, after 12 weeks): -95.0 ng/L
- C-Terminal Telopeptide (CTX-1), End Of Treatment Actual Change from Baseline, Median ([2]; E4 15 mg daily, after 12 weeks): -142.5 ng/L
- C-Terminal Telopeptide (CTX-1), End Of Treatment Actual Value, Mean ([2]; E4 15 mg daily, after 12 weeks): 320.9 ng/L
- C-Terminal Telopeptide (CTX-1), End Of Treatment Actual Value, Median ([2]; E4 15 mg daily, after 12 weeks): 197.5 ng/L
- C-Terminal Telopeptide (CTX-1), Baseline, Mean ([2]; E4 20 mg daily): 422.50 ng/L
- C-Terminal Telopeptide (CTX-1), Baseline, Median ([2]; E4 20 mg daily): 416.5 ng/L
- C-Terminal Telopeptide (CTX-1), End Of Treatment Actual Change from Baseline, Mean ([2]; E4 20 mg daily, after 28 days): -147.60 ng/L
- C-Terminal Telopeptide (CTX-1), End Of Treatment Actual Change from Baseline, Median ([2]; E4 20 mg daily, after 28 days): -138.0 ng/L
- C-Terminal Telopeptide (CTX-1), End Of Treatment Actual Value, Mean ([2]; E4 20 mg daily, after 28 days): 274.9 ng/L
- C-Terminal Telopeptide (CTX-1), End Of Treatment Actual Value, Median ([2]; E4 20 mg daily, after 28 days): 267.50 ng/L
- Dysuria score (none=0 to severe=3), mean ± SD (post-menopausal women [3]; E4 2.5 mg, Baseline): 0.2 ± 0.56
- Dysuria score (none=0 to severe=3), mean ± SD (post-menopausal women [3]; E4 2.5 mg, Week 12): 0 ± 0.19
- Dysuria score (none=0 to severe=3), mean ± SD (post-menopausal women [3]; E4 5 mg, Baseline): 0.2 ± 0.56
- Dysuria score (none=0 to severe=3), mean ± SD (post-menopausal women [3]; E4 5 mg, Week 12): 0 ± 0.20
- Dysuria score (none=0 to severe=3), mean ± SD (post-menopausal women [3]; E4 10 mg, Baseline): 0.2 ± 0.58
- Dysuria score (none=0 to severe=3), mean ± SD (post-menopausal women [3]; E4 10 mg, Week 12): 0.1 ± 0.23
- Dysuria score (none=0 to severe=3), mean ± SD (post-menopausal women [3]; E4 15 mg, Baseline): 0.3 ± 0.58
- Dysuria score (none=0 to severe=3), mean ± SD (post-menopausal women [3]; E4 15 mg, Week 12): 0.3 ± 0.61
- Endometrial thickness (postmenopausal women; 2 mg estetrol per day): stable
- Endometrial thickness (postmenopausal women; 10 mg estetrol per day): increasing
- Vaginal pain associated with sexual activity score (none=0 to severe=3), mean ± SD (post-menopausal women [4]; E4 2.5 mg, Baseline): 0.6 ± 0.77
- Vaginal pain associated with sexual activity score (none=0 to severe=3), mean ± SD (post-menopausal women [4]; E4 2.5 mg, Week 12): 0.3 ± 0.73
- Vaginal pain associated with sexual activity score (none=0 to severe=3), mean ± SD (post-menopausal women [4]; E4 5 mg, Baseline): 1 ± 1.07
- Vaginal pain associated with sexual activity score (none=0 to severe=3), mean ± SD (post-menopausal women [4]; E4 5 mg, Week 12): 0.5 ± 0.78
- Vaginal pain associated with sexual activity score (none=0 to severe=3), mean ± SD (post-menopausal women [4]; E4 10 mg, Baseline): 0.6 ± 0.77
- Vaginal pain associated with sexual activity score (none=0 to severe=3), mean ± SD (post-menopausal women [4]; E4 10 mg, Week 12): 0.2 ± 0.36
- Vaginal pain associated with sexual activity score (none=0 to severe=3), mean ± SD (post-menopausal women [4]; E4 15 mg, Baseline): 0.7 ± 0.90
- Vaginal pain associated with sexual activity score (none=0 to severe=3), mean ± SD (post-menopausal women [4]; E4 15 mg, Week 12): 0.3 ± 0.54
- Lipid parameters (triglycerides, cholesterol, HDL, LDL) and glucose level [5]: do not behave significantly differently
- Percentage of patients with TEAE leading to Study Discontinuation (post-menopausal women [6]; 2.5 mg group): 1.9%
- Percentage of patients with severe TEAE (post-menopausal women [6]; 2.5 mg group): 7.7%
- Percentage of patients with TEAE leading to Study Discontinuation (post-menopausal women [6]; 5 mg group): 6.4%
- Percentage of patients with severe TEAE (post-menopausal women [6]; 5 mg group): 10.6%
- Average AEs per patient (patients who had AEs) (post-menopausal women [6]; 10 mg group): 3.2
- Percentage of patients with TEAE leading to Study Discontinuation (post-menopausal women [6]; 10 mg group): 5.6%
- Percentage of patients with severe TEAE (post-menopausal women [6]; 10 mg group): 7.4%
- Average AEs per patient (patients who had AEs) (post-menopausal women [6]; 15 mg group): 2.6
- Percentage of patients with TEAE leading to Study Discontinuation (post-menopausal women [6]; 15 mg group): 4.1%
- Percentage of patients with severe TEAE (post-menopausal women [6]; 15 mg group): 6.1%
